Where “and” joins values, the source holds several entries; their conditions need not be identical. Identical values can stand only once.
Legend:
Eluc = experiment: BL emission spectra of luciferase-luciferin reactions; format: biochemical, Pyrearinus termitilluminans; details: 100 mM HEPES pH 8.0, 25 °C
Protocol: (§1) 1.5 Bioluminescence characterizations
(§2) Reactions of luciferases, including Photinus pyralis luciferase (Fluc), Phrixothrix hirtus luciferase (SLR), Pyrearinus termitilluminans […]
(§3) mM D-LH 2 analogues, 3 mM ATP, 6 mM MgCl2, and 10 µM luciferase in 0.2 ml of 100 mM HEPES-NaOH pH 8.0. The bioluminescence (BL) emission characteristics were recorded using a microplate reader in a BL mode (Thermo Scientific, Varioskan, LUX multimode). […]
(§4) sphere-based multichannel spectrometer with a charge-coupled device (CCD) detector. […]

[1] = system: HepG2 cell line stably expressing a Fluc reporter; experiment: BL spectra in live HepG2 cells stably expressing Fluc; format: cell-based, human; details: live HepG2, DMEM with 25 mM HEPES-NaOH pH 7.0, 37 °C, 100 µM
Protocol: (§5) mM purified luciferases into the reaction tube and the bioluminescence signals were monitored until it decayed to the background level.
The QY value was calculated from the measured total numbers of photon emission from the reaction of each D-LH 2 analogue with […]
1.6 Mammalian cell line culture and bioluminescence assays
Human embryotic kidney (HEK293T) cells, human hepatocyte carcinoma cancer (HepG2) cells, human cervical carcinoma (HeLa) cells, and Abelson leukemia virus-transformed cell line derived from BALB/c mice (RAW264.7) cells (American Type Culture Collection, USA) were grown in Dulbecco’s Modified Eagle Medium (DMEM) in low glucose supplemented with 10% (v/v) heat-inactivated fetal bovine serum (FBS) plus 1% (w/v) penicillin-streptomycin. Four types of cells were maintained at 37 °C with 5% CO2. For transient transfection, […]
supplemented with 10% (v/v) heat-inactivated FBS. Before transfection, the cultured medium was removed and added a fresh minimal essential medium with reduced amount of serum (opti-MEMTM) to each well. Cells were transfected by adding 0.07 pmol of pGL4.13 [luc2/SV40] as a target vector and 0.007 pmol of pRL-TK as a control vector using lipofectamineTM3000 (Thermo Fisher Scientific) in opti-MEMTM and lipofection. Cells were incubated for 5 h and then the supernatant medium was replaced by a fresh working DMEM medium.
Cells were harvested by washing with 500 μl PBS buffer (pH 7.4). The cells were detached […]
freezing-thawing process. […]
kept at -80 °C until used.
The 150 µl assay reaction was carried out in 150 µl 100 mM HEPES-NaOH (pH 8.0). The 25 µl […]
100 mM HEPES-NaOH (pH 8.0). Then, the RLU signals of each D-LH 2 and analogues were compared. […]
proteins) and a substrate cocktail reagent (3 mM ATP and 6 mM MgCl2 in 100 mM HEPES pH 8.0). The detection sensitivity of crude lysate of HEK293T expressing Fluc was determined by measuring RLU of the reaction with a luminometer with concentrations under the linearity […]
After the cells reached the highest BL intensity, the dish was recorded with a highly sensitive CCD […]

[2] = system: stably Fluc-expressing HepG2 cells; experiment: Real-time BL monitoring of live cells; format: cell-based, human; details: Fluc HepG2, 100 µM; for Time at which the highest BL signals were achieved: monitored for 3 days
Fluc [3] = biological target: T1, Fluc (Photinus pyralis, UniProt P08659); experiment: Bioluminescence quantum yield measurement; format: biochemical
T1 sequence (P08659 whole entry): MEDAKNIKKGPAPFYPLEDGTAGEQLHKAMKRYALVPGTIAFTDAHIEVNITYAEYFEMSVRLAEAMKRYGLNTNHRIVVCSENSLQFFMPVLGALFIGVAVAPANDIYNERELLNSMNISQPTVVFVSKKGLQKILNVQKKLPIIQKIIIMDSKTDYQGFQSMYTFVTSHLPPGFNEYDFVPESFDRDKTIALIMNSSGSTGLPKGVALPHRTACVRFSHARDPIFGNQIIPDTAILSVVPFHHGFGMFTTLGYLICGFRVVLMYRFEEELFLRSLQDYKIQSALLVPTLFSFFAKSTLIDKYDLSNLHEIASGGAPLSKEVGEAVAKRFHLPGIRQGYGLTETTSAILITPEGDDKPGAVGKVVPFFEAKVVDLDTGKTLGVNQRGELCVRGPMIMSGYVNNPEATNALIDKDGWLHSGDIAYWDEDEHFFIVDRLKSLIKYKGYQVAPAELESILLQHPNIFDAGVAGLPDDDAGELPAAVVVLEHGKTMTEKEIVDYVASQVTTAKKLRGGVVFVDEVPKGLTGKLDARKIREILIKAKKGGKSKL
Protocol: as §1, §2
mM D-LH 2 analogues, 3 mM ATP, 6 mM MgCl2, and 10 µM luciferase in 0.2 ml of 100 mM HEPES-NaOH pH 8.0. […]
A reference light source was used for calibrating a sphere spectrometer equipped with a cooled CCD detector.
The absolute responsivity of each luciferase-luciferin reaction was calculated based on a linear standardization between total photon flux measured using the sphere spectrometer equipped with a cooled CCD detector and relative count values measured by a luminometer. Total photons emitted from the bioluminescence reaction of each luciferase-luciferin pair were measured using a calibrated luminometer. A reaction containing 0.5-5 nM of each luciferin, 3 mM ATP, 3 mM MgCl2 in 100 mM Tris-HCl (total volume of 200 µl) was placed into the luminometer and background signals were recorded. The reaction was then initiated by adding 20 µl of 0.5 […]
as §5

[4] = biological target: T2, Fluc-containing HEK293T crude lysate (Photinus pyralis, UniProt P08659, K549A/L550V/N119G/N50D/S548I); experiment: BL assay of crude lysate of HEK293T expressing Fluc; format: cell-based
T2 construct: expressed in transfected cells; host or cells: HEK293T, transient transfection with pGL4.13 [luc2/SV40]
T2 sequence (P08659 whole entry N50D/N119G/S548I/K549A/L550V): as the sequence (P08659 whole entry) above, with N50D, N119G, S548I, K549A, L550V counted along it

Pmluc-N230S = experiment: Stability of BL signals (half-time of light emission); format: biochemical, Pyrocoelia miyako; details: compared to 2a
Protocol: as §1, §2
mM D-LH 2 analogues, 3 mM ATP, 6 mM MgCl2, and 10 µM luciferase in 0.2 ml of 100 mM HEPES-NaOH pH 8.0. The bioluminescence (BL) emission characteristics were recorded using a microplate reader in a BL mode (Thermo Scientific, Varioskan, LUX multimode). A digital single-lens reflex (DSLR) camera (Nikon D80, CCD sensor) with a 30-second exposure period was used to capture the BL images. […]

[5] = system: Fluc-expressing HeLa cells; experiment: Real-time BL monitoring of live cells; details: 100 µM
Protocol: plasmids and Lipofectamine 3000 were then combined and incubated for 30 minutes to allow formation of DNA and lipid complexes.
The DNA-lipid complexes were added directly to each well of the empty plate. 1.5 × 10⁵ cells (HepG2 and HeLa cells) were then suspended
in 150 µL of DMEM supplemented with 10% FBS were added directly into the transfection mixture in each well. The plate was gently
agitated to ensure even distribution and incubated at 37°C in a humidified 5% CO₂ incubator. The reporter cells obtained at this stage
were ready for further investigation of their bioluminescence with D-LH2 analogues.
2c), 10% FBS and 25 mM HEPES-NaOH (pH 7.0) was added and the BL signals were monitored with F0 (no filter) and F2 (red filter, >620
nm long-pass filter) by a luminometer (ATTO, Kronos HT, WSL-1563) and while maintaining the cells with 5% CO2 at 37 °C.

Fluc [6] = biological target: T1, Fluc; experiment: BL emission spectra of luciferase-luciferin reactions; format: biochemical; details: 100 mM HEPES pH 8.0, 25 °C
Protocol: as §1, §2, §3, §4

Row | SMILES | Bioluminescence wavelength (BLλ) (Eluc) [nm] | BL spectrum peak in live cells [1] [nm] | Time at which the highest BL signals were achieved [2] [h] | Quantum yield (Fluc [3]) | Limit of detection (LOD) of expressed Fluc in crude cell lysates ([4]; HEK293T crude lysate) [ng] | BL half-life (t1/2) longer than that of 2a (Pmluc-N230S) | Time BL signals increase or are prolonged before decreasing [5] | Highest signal obtained at faster rate than that of 2a [2] [fold] | Sensitivity to detect Fluc better than natural D-LH2 (2a) ([4]; HEK293T crude lysate, from LOD) | Sensitivity greater than 2a ([4]; HEK293T lysate, varied substrate concentration and lysate amount) | Light intensity greater than 2a ([4]; fixed amount of HEK293T crude lysate, varied concentration) | Bioluminescence wavelength (BLλ) (Fluc [6]) [nm]
1 | O=C(O)[C@H]1CSC(c2nc3ccc(O)cc3s2)=N1 [Compound 2a, D-luciferin, reference compound] | 537 | 604 | 44 | 0.44 and 0.44 ± 0.04 | 51.6 | – | – | – | – | – | – | –
2 | Cc1cc2nc(C3=N[C@@H](C(=O)O)CS3)sc2cc1O [Compound 2b, 5’-methyl-D-luciferin] | 560 | 609 | 35 | 0.52 and 0.52 ± 0.01 | 4.6 | about 1.7 fold | up to 13 h | 1.2 | about 11.2 fold | about 2 fold | about 2.5 fold | 605
3 | Cc1cc2nc(C3=N[C@@H](C(=O)O)CS3)sc2c(C)c1O [Compound 2c, 5’,7’-di-methyl-D-luciferin] | 573 | 638 | 6 | 0.20 and 0.200 ± 0.007 | – | ~5.6 fold | up to 13 h | 7.3 | – | – | – | 628

— PMC12668289 (RSC Chemical Biology, 2025)
